Data published in patent US20250009942A1, “BIODEGRADABLE PIEZOELECTRIC NANOFIBERS” (University of Connecticut, priority 2022, published 2025).

Conditions: corona discharge, 20 kV
Text: Ionized air particles around the needle were accelerated and bombard towards the sample surface, causing electric field across the substrate. […] Later, the samples (n=5 for each group) were positioned on an anti-static mat (Bertech, 1059-2X3BKT) to increase the accuracy of the measurement. The voltmeter was grounded and was held 5 mm from the sample surface.
The particles 130, 190 were placed on a ground plate and a high voltage (20 kV) was applied between the plate and the top positive nozzle.

SMILES: NCC(=O)O [glycine particles, glycine]
- charge accumulation rate and surface charge density after poling: considerably higher than those before poling
